Key:
[1] = tested on: ABCA1 gene expression; assay: Human whole blood assay (hWBA), ABCA1 mRNA induction; type: cell-based; conditions: for Emax: Homo sapiens, 4 h, percent of reference pan agonist (maximal activity defined as 100%), read-out: hWBA hABCA1 L30 Max P (%); for EC50: human whole blood, 4 hours, ABCA1 mRNA normalized to L30, read-out: hWBA hABCA1 L30 EC50
Description: Human whole blood was collected in EDTA containing tubes and 0.5 mL aliquots were immediately mixed in a 96 well block with the appropriate serial dilution of test compound, in 0.5% DMSO. Compounds were incubated with blood at 37° C. with constant rocking for 4 hours. After incubation, cells were lysed in ABI Nucleic Acid Purification Lysis Solution (Applied Biosystems catalog #4305895) and frozen at −80° C. Following cell lysis, total RNA was purified using an ABI 6100 RNA prep station according to the protocol provided by the manufacturer. cDNAs were synthesized, and mRNAs were quantitated using SYBR-Green Quantitative PCR (Q-PCR) on an ABI Prism 7900HT Sequence Detection System and reagents from Quanta Bioscience Inc (Quanta Bioscience catalog #95047 and 95055).
The quantity of each mRNA was determined by the ΔΔCT method (Michael W. Pfaffl. A new mathematical model for relative quantification in real-time RT-PCR. Nucleic Acids Research, 2001, Vol. 29, No. 9 e45) and normalized to the quantity of two control mRNAs, i.e. ribosomal protein L-30 (L-30) and beta-2-microglobulin (B2M). The induction of ABCA1 and ABCG1 by test compound was graphed as a percent of the reference compound, 2-(4-(5-(5-cyano-1-(2,4-difluorobenzyl)-6-oxo-4-(trifluoromethyl)-1,6-dihydropyridin-2-yl)thiophen-2-yl)-3-methylphenyl)acetic acid, and potency (EC50) and activity (% MAX) were calculated by fitting a sigmoidal response curve as a function of log transformed compound concentration using XLFit software according to the equation y=A+((B−A)/(1+((C/x)^D))).

[2] = High throughput metabolic stability in human microsomes; type: in vitro ADME; conditions: parent compound remaining at 10 minutes, human liver microsomes
Description: The metabolic stability assay evaluates CYP-mediated metabolic stability in vitro using Human liver microsomes after a ten-minute incubation.
Test compound is received as a 3.5 mM stock solution in 100 percent DMSO. Compound is diluted to create a 50 μM acetonitrile (ACN) solution containing 1.4% DMSO, which is then used as a 100× stock for incubation with human liver microsomes. Each compound is tested in duplicate. Compound, NADPH and liver microsome solutions are combined for incubation in three steps: • 1) 152 μl of liver microsome suspension, protein concentration of 1.1 mg/ml in 100 mM NaPi, pH 7.4, 5 mM MgCl2 buffer, is pre-warmed at 37° C. • 2) 1.7 μl of 50 μM compound (98.6% ACN, 1.4% DMSO) is added to the same tube and pre-incubated at 37° C. for 5 minutes. • 3) The reaction is initiated by the addition of 17 μl of pre-warmed 10 mM NADPH solution in 100 mM NaPi, pH 7.4.
Reaction components are mixed well, and 75 μl are immediately transferred into 150 μl quench/stop solution (zero-time point, T0). Reactions are incubated at 37° C. for 10 minutes and then an additional 75 μl aliquot is transferred into 150 μl quench solution. Acetonitrile containing 100 μM DMN (a UV standard for injection quality control), is used as the quench solution to terminate metabolic reactions.
Quenched mixtures are centrifuged at 1500 rpm (˜500× g) in an Allegra X-12 centrifuge, SX4750 rotor (Beckman Coulter Inc., Fullerton, Calif.) for fifteen minutes to pellet denatured microsomes. A volume of 90 μl of supernatant extract, containing the mixture of parent compound and its metabolites, is then transferred to a separate 96-well plate for UV-LC/MS-MS analysis to determine the per cent of parent compound that is remaining in the mixture.
The mass spectrometric conditions obtained from automated infusion are used to analyze incubation samples from the Metabolic Stability assay. The injection volume is 5 μl and the flow rate is 0.8 ml/min. The gradient used is show in the table below. All samples are injected with the gradient using mobile phase A and B first. If necessary (for instance, for chromatographic reasons), samples are re-injected with the same gradient, but using mobile phase C and D. All LC-MS/MS analysis parameters are captured electronically in the raw data files.
Peak integration is performed with the Xcalibur™ software. The percent remaining calculation is performed by comparing the LC-MS/MS peak areas from the T10minute samples to those from the T0minute samples for each compound.

| Human Microsome % Remaining [2] [%] | Compound | Emax [1] [%] | EC50 [1] [nM] |
| --- | --- | --- | --- |
| >80 | CC(C)(O)c1cn(-c2ccc(-c3cccc(S(C)(=O)=O)c3)cc2)c(C(C)(C)c2ccccc2Cl)n1 [Compound No. 19, Table 1, WO 2007/002563, reference compound] | 55 | > 1000 |
| >80 | CC(C)(O)c1cn(-c2ccc(-c3cc(F)c(CO)c(S(C)(=O)=O)c3)cc2)c(C(C)(C)c2ccccc2F)n1 [Example 1, 2-(1-(3′-fluoro-4′-(hydroxymethyl)-5′-(methylsulfonyl)biphenyl-4-yl)-2-(2-(2-fluorophenyl)propan-2-yl)-1H-imidazol-4-yl)propan-2-ol] | 28 | < 100 |
| >80 | Cc1cc(-c2cc(F)c(CO)c(S(C)(=O)=O)c2)ccc1-n1cc(C(C)(C)O)nc1C(C)(C)c1c(F)cccc1Cl [Example 2, 2-(2-(2-(2-chloro-6-fluorophenyl)propan-2-yl)-1-(3′-fluoro-4′-(hydroxymethyl)-3-methyl-5′-(methylsulfonyl)biphenyl-4-yl)-1H-imidazol-4-yl)propan-2-ol] | 18 | < 100 |
| >80 | CC(C)(O)c1cn(-c2ccc(-c3cc(F)c(CO)c(S(C)(=O)=O)c3)cc2Cl)c(C(C)(C)c2c(Cl)cccc2Cl)n1 [Example 3, 2-(1-(3-chloro-3′-fluoro-4′-(hydroxymethyl)-5′-(methylsulfonyl)biphenyl-4-yl)-2-(2-(2,6-dichlorophenyl)propan-2-yl)-1H-imidazol-4-yl)propan-2-ol] | 16 | < 100 |
| >80 | CC(C)(O)c1cn(-c2ccc(-c3cc(F)c(CO)c(S(C)(=O)=O)c3)cc2)c(C(C)(C)c2cccc(F)c2Cl)n1 [Example 4, 2-(2-(2-(2-chloro-3-fluorophenyl)propan-2-yl)-1-(3′-fluoro-4′-(hydroxymethyl)-5′-(methylsulfonyl)biphenyl-4-yl)-1H-imidazol-4-yl)propan-2-ol] | 34 | < 100 |
| >80 | CC(C)(O)c1cn(-c2ccc(-c3cc(F)c(CO)c(S(C)(=O)=O)c3)cc2)c(C(C)(C)c2c(Cl)cccc2Cl)n1 [Example 5, 2-(2-(2-(2,6-dichlorophenyl)propan-2-yl)-1-(3′-fluoro-4′-(hydroxymethyl)-5′-(methylsulfonyl)biphenyl-4-yl)-1H-imidazol-4-yl)propan-2-ol] | 43 | < 100 |
| >80 | CC(C)(O)c1cn(-c2ccc(-c3cc(F)c(CO)c(S(C)(=O)=O)c3)cc2F)c(C(C)(C)c2ccccc2Cl)n1 [Example 6, 2-(2-(2-(2-Chloro-phenyl)propan-2-yl)-1-(3,3′-difluoro-4′-hydroxymethyl-5′-(methylsulfonyl)biphenyl-4-yl)-1H-imidazol-4-yl)-propan-2-ol] | 35 | < 100 |
| >80 | CC(C)(O)c1cn(-c2ccc(-c3cc(F)c(CO)c(S(C)(=O)=O)c3)cc2F)c(C(C)(C)c2c(F)cccc2Cl)n1 [Example 7, 2-(2-(2-(2-chloro-6-fluorophenyl)propan-2-yl)-1-(3,3′-difluoro-4′-(hydroxymethyl)-5′-(methylsulfonyl)biphenyl-4-yl)-1H-imidazol-4-yl)propan-2-ol] | 33 | < 100 |
| >80 | CC(C)(O)c1cn(-c2ccc(-c3cc(F)c(CO)c(S(C)(=O)=O)c3)cc2F)c(C(C)(C)c2ccccc2F)n1 [Example 8, 2-{1-(3,3′-Difluoro-4′-hydroxymethyl-5′-methanesulfonyl-biphenyl-4-yl)-2-[2-(2-fluorophenyl)propan-2-yl]-1H-imidazol-4-yl}-propan-2-ol] | 23 | < 100 |

Source: patent US8618154B2, “LXR modulators” (Bristol-Myers Squibb Company, priority 2009, dated 2013)
